Experimental data from patent US8658350B2 (priority 2008, dated 2014).

These compounds were tested on CD8+ T cells.
Type: cell-based, human

Point of comparison: `CSCC[C@H](NC(=O)[C@@H](N)CCC(=O)O)C(=O)N[C@@H](CCCCN)C(=O)N[C@H](C(=O)N[C@@H](CC(=O)O)C(=O)N[C@@H](C)C(=O)N[C@@H](C)C(=O)N[C@H](C(=O)N[C@@H](CC(C)C)C(=O)O)[C@@H](C)O)[C@@H](C)O`, “# SFU” value 387. Against it:
- CC(C)[C@H](NC(=O)[C@H](Cc1ccccc1)NC(=O)[C@H](CCCNC(=N)N)NC(=O)[C@H](C)NC(=O)[C@H](Cc1c[nH]cn1)NC(=O)[C@H](C)NC(=O)[C@H](C)N)C(=O)N[C@@H](C)C(=O)N[C@@H](C)C(=O)O — lower, 88
- CSCC[C@H](NC(=O)[C@H](CCC(=O)O)NC(=O)[C@H](C)N)C(=O)N[C@@H](CCCCN)C(=O)N[C@H](C(=O)N[C@@H](CC(=O)O)C(=O)N[C@@H](C)C(=O)N[C@@H](C)C(=O)O)[C@@H](C)O — higher, 2458
- CSCC[C@H](NC(=O)[C@H](CCC(=O)O)NC(=O)[C@H](C)N)C(=O)N[C@@H](CCCCN)C(=O)N[C@H](C(=O)N[C@@H](CC(=O)O)C(=O)N[C@@H](C)C(=O)N[C@@H](C)C(=O)N[C@H](C(=O)N[C@@H](CC(C)C)C(=O)N[C@@H](C)C(=O)O)[C@@H](C)O)[C@@H](C)O — higher, 1993
- CC(C)C[C@H](NC(=O)[C@H](Cc1ccc(O)cc1)NC(=O)[C@H](CO)NC(=O)[C@H](CCC(N)=O)NC(=O)[C@H](C)NC(=O)[C@@H](NC(=O)[C@@H]1CCCN1C(=O)[C@H](CO)NC(=O)[C@H](C)N)C(C)C)C(=O)O — lower, 210
- CC[C@H](C)[C@H](NC(=O)[C@@H](NC(=O)[C@H](C)N)C(C)C)C(=O)N[C@@H](CC(N)=O)C(=O)N[C@H](C(=O)N[C@H](C(=O)N[C@@H](CS)C(=O)N[C@@H](CC(N)=O)C(=O)N[C@@H](Cc1ccc(O)cc1)C(=O)NCC(=O)N[C@@H](CCC(N)=O)C(=O)O)[C@@H](C)O)[C@@H](C)O — lower, 24
- CC[C@H](C)[C@H](NC(=O)[C@@H](N)CC(N)=O)C(=O)N[C@@H](CCCNC(=N)N)C(=O)N[C@@H](CCC(N)=O)C(=O)N[C@@H](C)C(=O)NCC(=O)N[C@H](C(=O)N[C@@H](CCC(N)=O)C(=O)N[C@@H](Cc1ccc(O)cc1)C(=O)O)C(C)C — higher, 1715
- CC(C)[C@H](NC(=O)[C@H](C)NC(=O)[C@H](C)NC(=O)[C@H](CCC(N)=O)NC(=O)[C@H](C)NC(=O)[C@H](C)NC(=O)[C@@H](N)[C@@H](C)O)C(=O)N[C@H](C(=O)N[C@@H](CCCNC(=N)N)C(=O)N[C@@H](Cc1ccccc1)C(=O)O)C(C)C — lower, 258
- RADEEQQQAL — lower, 120

In the case of `CC[C@H](C)[C@H](NC(=O)[C@H](Cc1c[nH]cn1)NC(=O)[C@H](C)NC(=O)[C@H](CC(=O)O)NC(=O)[C@H](CC(C)C)NC(=O)[C@@H](N)CC(C)C)C(=O)N1CCC[C@H]1C(=O)N[C@@H](CCC(N)=O)C(=O)N[C@@H](CC(C)C)C(=O)O`, the “# SFU” value is reported as under 10.
With ELPQWLSANR the “# SFU” value was under 10.

In the case of QTVEDEARRMW, the “#SFU/250,000 CD8+ T-cells” value is reported as 84.
